Where “and” joins values, the source holds several entries; their conditions need not be identical. Identical values can stand only once. Inconclusive results and toxic doses are left out. Starred links: 1 amine or outer side, 2 acyl side, 3 side chain; linkers in the order of their positions; H or OH if unused. Positions of bridges follow the written chain, without caps; N, C: chain ends. Non-standard residues stand in square brackets, D forms with d. Residues, ends and D or L forms follow the SMILES beside them. Chains are numbered I, II in the order given. Actinocin(9to1) = Cc1c2oc3c(C)ccc(C(=O)[*:1])c3nc-2c(C(=O)[*:2])c(N)c1=O; aThr = C[C@H](O)[C@H](N)C(=O)O; NMeV = CN[C@H](C(=O)O)C(C)C; Sar = CNCC(=O)O
Tested on: P335 leukemia ip, BDF1 mice, survival T/C %
Experiment: NCI In Vivo Anticancer Drug Screen. Data for tumor model P335 Leukemia (intraperitoneal) in B6D2F1 (BDF1) mice
Conditions: endpoint: mean survival time, schedule: Q01DX Z (ip), higher = longer survival
Protocol: The antitumor activity of compounds was measured in mice bearing transplantable tumors. Survival or tumor size were measured and the results are expressed as the measurement made in the treated group (T) divided by the measurement made in the vehicle treated control group (C). The tumor model used in this assay is P335 Leukemia (intraperitoneal) in B6D2F1 (BDF1) mice

[1] = dose: 0.31 mg/kg/injection, vehicle: carboxymethylcellulose (CMC)
[2] = dose: 1.25 mg/kg/injection, vehicle: carboxymethylcellulose (CMC)
[3] = dose: 12.5 mg/kg/injection, vehicle: carboxymethylcellulose (CMC)

`O=c1cnn(C2OC(CO)C(O)C2O)c(=O)[nH]1` (stereo not drawn) was tested, and the T/C (dose: 0.98 mg/kg/injection, vehicle: water) was 102 % of control, the T/C (dose: 1.0 mg/kg/injection, vehicle: water) was 95 % of control and the T/C (dose: 1.95 mg/kg/injection, vehicle: water) was 115 % of control. For the same compound, the T/C (dose: 2.0 mg/kg/injection, vehicle: water) was 98 % of control, the T/C (dose: 3.9 mg/kg/injection, vehicle: water) was 105 % of control and the T/C (dose: 7.8 mg/kg/injection, vehicle: water) was 112 % of control. The T/C (dose: 8.0 mg/kg/injection, vehicle: water) was 93 % of control, the T/C (dose: 15.6 mg/kg/injection, vehicle: water) was 152 % of control and the T/C (dose: 250.0 mg/kg/injection, vehicle: water) was 101 % of control. For the same compound, the T/C (dose: 500.0 mg/kg/injection, vehicle: water) was 104 % of control and the T/C (dose: 1000.0 mg/kg/injection, vehicle: water) was 112 % of control.
`N#[N+]c1cnc([O-])[nH]c1=O` was tested, and the T/C [1] was 96 % of control, the T/C (dose: 0.62 mg/kg/injection, vehicle: carboxymethylcellulose (CMC)) was 123 % of control and the T/C [2] was 103 % of control. For the same compound, the T/C (dose: 5.0 mg/kg/injection, vehicle: carboxymethylcellulose (CMC)) was 124 % of control and the T/C (dose: 10.0 mg/kg/injection, vehicle: carboxymethylcellulose (CMC)) was 103 % of control and 104 % of control and 110 % of control.
`CC(=O)N(C)C` was tested, and the T/C (dose: 250.0 mg/kg/injection, vehicle: saline) was 95 % of control, the T/C (dose: 500.0 mg/kg/injection, vehicle: saline) was 110 % of control and the T/C (dose: 1000.0 mg/kg/injection, vehicle: saline) was 92 % of control. For the same compound, the T/C (dose: 2000.0 mg/kg/injection, vehicle: saline) was 90 % of control.
`O=C1C(NC(=O)C2CCCCC2)=C(N2CC2)C(=O)C(NC(=O)C2CCCCC2)=C1N1CC1` was tested, and the T/C (dose: 150.0 mg/kg/injection, vehicle: carboxymethylcellulose (CMC)) was 103 % of control, the T/C (dose: 300.0 mg/kg/injection, vehicle: carboxymethylcellulose (CMC)) was 101 % of control and the T/C (dose: 600.0 mg/kg/injection, vehicle: carboxymethylcellulose (CMC)) was 106 % of control.
`Nc1nc(=S)c2[nH]cnc2[nH]1` was tested, and the T/C (dose: 0.12 mg/kg/injection, vehicle: carboxymethylcellulose (CMC)) was 92 % of control, the T/C (dose: 0.25 mg/kg/injection, vehicle: carboxymethylcellulose (CMC)) was 95 % of control and the T/C (dose: 0.5 mg/kg/injection, vehicle: carboxymethylcellulose (CMC)) was 95 % of control. For the same compound, the T/C (dose: 1.0 mg/kg/injection, vehicle: carboxymethylcellulose (CMC)) was 101 % of control and the T/C (dose: 2.0 mg/kg/injection, vehicle: carboxymethylcellulose (CMC)) was 95 % of control.
With `[I][Hg][CH2]C1COC([CH2][Hg][I])CO1` (stereo not drawn) the T/C (dose: 3.75 mg/kg/injection, vehicle: carboxymethylcellulose (CMC)) was 110 % of control.
For `O=P1(N(CCCl)CCCl)NCCCO1` (stereo not drawn), the T/C (dose: 6.25 mg/kg/injection, vehicle: saline) was 113 % of control and the T/C (dose: 200.0 mg/kg/injection, vehicle: saline) was 107 % of control.
`Cn1cnc([N+](=O)[O-])c1Sc1ncnc2nc[nH]c12` was tested, and the T/C [3] was 89 % of control, the T/C (dose: 25.0 mg/kg/injection, vehicle: carboxymethylcellulose (CMC)) was 105 % of control and the T/C (dose: 50.0 mg/kg/injection, vehicle: carboxymethylcellulose (CMC)) was 115 % of control.
For `CN(Cc1cnc2nc(N)nc(N)c2n1)c1ccc(C(=O)N[C@@H](CCC(=O)O)C(=O)O)cc1`, the T/C (dose: 0.31 mg/kg/injection, vehicle: other) was 110 % of control and the T/C (dose: 3.0 mg/kg/injection, vehicle: other) was 88 % of control.
In the case of `O=CN(O)CC(=O)O`, the T/C (dose: 125.0 mg/kg/injection, vehicle: none) is reported as 87 % of control, the T/C (dose: 250.0 mg/kg/injection, vehicle: none) is reported as 95 % of control and the T/C (dose: 500.0 mg/kg/injection, vehicle: carboxymethylcellulose (CMC)) is reported as 109 % of control. The T/C (dose: 500.0 mg/kg/injection, vehicle: none) was 89 % of control and the T/C (dose: 1000.0 mg/kg/injection, vehicle: carboxymethylcellulose (CMC)) was 93 % of control.
In the case of `Cc1c2oc3c(C)ccc(C(=O)N[C@@H]4C(=O)N[C@H](C(C)C)C(=O)N5CCC[C@H]5C(=O)N(C)CC(=O)N(C)[C@@H](C(C)C)C(=O)O[C@H]4C)c3nc-2c(C(=O)N[C@@H]2C(=O)N[C@H](C(C)C)C(=O)N3CCC[C@H]3C(=O)N(C)CC(=O)N(C)[C@@H](C(C)C)C(=O)O[C@H]2C)c(N)c1=O` (I: [aThr][dV]P[Sar][NMeV] / II: [aThr][dV]P[Sar][NMeV]; ester I:1-I:C, II:1-II:C; linker I:N-II:N via Actinocin(9to1)), the T/C (dose: 0.8 micrograms/kg/injection, vehicle: saline) is reported as 106 % of control, the T/C (dose: 1.6 micrograms/kg/injection, vehicle: saline) is reported as 106 % of control and the T/C (dose: 2.5 micrograms/kg/injection, vehicle: saline) is reported as 96 % of control. The T/C (dose: 4.9 micrograms/kg/injection, vehicle: saline) was 102 % of control, the T/C (dose: 6.4 micrograms/kg/injection, vehicle: saline) was 120 % of control and the T/C (dose: 9.8 micrograms/kg/injection, vehicle: saline) was 98 % of control. The T/C (dose: 19.5 micrograms/kg/injection, vehicle: saline) was 88 % of control, the T/C (dose: 38.9 micrograms/kg/injection, vehicle: saline) was 122 % of control and the T/C (dose: 51.2 micrograms/kg/injection, vehicle: saline) was 115 % of control. For the same compound, the T/C (dose: 102.4 micrograms/kg/injection, vehicle: saline) was 103 % of control.
With `C=CC(CN1CC1)OC(C)=O` (stereo not drawn) the T/C (dose: 0.47 mg/kg/injection, vehicle: carboxymethylcellulose (CMC)) was 106 % of control, the T/C (dose: 0.95 mg/kg/injection, vehicle: carboxymethylcellulose (CMC)) was 110 % of control and the T/C (dose: 1.9 mg/kg/injection, vehicle: carboxymethylcellulose (CMC)) was 103 % of control.
In the case of `CCN(CC)CCNc1ccc(C)c2sc3ccccc3c(=O)c12`, the T/C (dose: 0.78 mg/kg/injection, vehicle: methylcellulose (MC)) is reported as 89 % of control, the T/C (dose: 6.25 mg/kg/injection, vehicle: methylcellulose (MC)) is reported as 92 % of control and the T/C (dose: 50.0 mg/kg/injection, vehicle: methylcellulose (MC)) is reported as 89 % of control. For the same compound, the T/C (dose: 100.0 mg/kg/injection, vehicle: methylcellulose (MC)) was 93 % of control.
`N[C@@H](Cc1ccc(N(CCCl)CCCl)cc1)C(=O)O` was tested, and the T/C (dose: 1.25 mg/kg/injection, vehicle: saline) was 168 % of control, the T/C (dose: 2.5 mg/kg/injection, vehicle: saline) was 169 % of control and 195 % of control and the T/C (dose: 5.0 mg/kg/injection, vehicle: saline) was 106 % of control.
In the case of `CCCCn1cnc2c(=S)nc[nH]c21`, the T/C (dose: 0.4 mg/kg/injection, vehicle: carboxymethylcellulose (CMC)) is reported as 89 % of control, the T/C (dose: 0.8 mg/kg/injection, vehicle: carboxymethylcellulose (CMC)) is reported as 87 % of control and the T/C (dose: 1.6 mg/kg/injection, vehicle: carboxymethylcellulose (CMC)) is reported as 87 % of control.
For `O[C@H](CN1CC1)[C@@H](O)CN1CC1`, the T/C (dose: 1.8 micrograms/kg/injection, vehicle: carboxymethylcellulose (CMC)) was 95 % of control, the T/C (dose: 3.7 micrograms/kg/injection, vehicle: carboxymethylcellulose (CMC)) was 111 % of control and the T/C (dose: 7.5 micrograms/kg/injection, vehicle: carboxymethylcellulose (CMC)) was 119 % of control. For the same compound, the T/C (dose: 15.0 micrograms/kg/injection, vehicle: carboxymethylcellulose (CMC)) was 109 % of control.
`CC(=O)Nc1ccc2nc3ccc(NC(C)=O)cc3[n+](-c3ccccc3)c2c1` was tested, and the T/C [3] was 98 % of control.
For `Nc1nc(=S)c2ncn(C3OC(CO)C(O)C3O)c2[nH]1` (stereo not drawn), the T/C (dose: 0.16 mg/kg/injection, vehicle: carboxymethylcellulose (CMC)) was 93 % of control, the T/C [1] was 117 % of control and the T/C (dose: 0.63 mg/kg/injection, vehicle: carboxymethylcellulose (CMC)) was 90 % of control. The T/C [2] was 90 % of control.

Source: PubChem BioAssay AID224 (DTP/NCI, 2004)
